Patent publication US20080261898A1, “COMPOSITION AND METHOD FOR CANCER TREATMENT AND PREVENTION” (priority 2007, published 2008)

Tests used:
[1] = system: CDK1; experiment: CDK1 expression in xenograft tumor samples, immunoblotting; format: in vivo, mouse
Experimental: (§1) 8-12 week old athymic nude mice (Jackson Laboratories, Bar Harbor, Me., US) were randomly assigned to Control (n=10) and Treatment (n=10) groups. Tumor xenografts were generated by injecting DU-145 cells (4×10^6) subcutaneously into the mice (Day 1). 1 mg/kg body weight of AC620 or PBS (Control) was administrated to the mice by subcutaneous injection starting at the time of tumor implantation (Day 1) and the mice were treated twice a week. Tumors were measured periodically. At Day 30, the mice were sacrificed. Half of each tumor was processed for immunohistochemical analysis and the other half was frozen for subsequent protein and RNA analysis.
(§2) Xenograft mouse model was generated and AC620 or PBS (Control) was administrated to the transplanted mice for 30 days as described above. After the mice were sacrificed, immunoblotting analysis of the tumor samples was performed using CDK1 and CDK2 antibodies as described above.

[2] = system: Bcl-2; experiment: Bcl-2 expression in xenograft tumor samples, immunoblotting; format: in vivo, mouse
Experimental: as §1
(§3) Xenograft mouse model was generated and AC620 or PBS (Control) was administrated to the transplanted mice for 30 days as described above. After the mice were sacrificed, immunoblotting analysis of the tumor samples was performed using Bcl-2 and p21 antibodies as described above.

[3] = system: CDK2; experiment: CDK2 expression in xenograft tumor samples, immunoblotting; format: in vivo, mouse
Experimental: as §1, §2

[4] = system: DU-145 cells; experiment: BrdU based cell proliferation assay, DU-145 cells; design: species or system human
Experimental: (§4) AC620 was incubated with hormone-refractory prostate cancer cell line DU-145 cells and hormone-responsive prostate cancer cell line LNCaP cells at various concentrations (0, 0.1, 0.5, 1, 5 μM) for 72 hr. LNCaP cells were maintained in RPMI 1640 medium (PAA Laboratories, Pashing, Austria) supplemented with 10% fetal calf serum (FCS) (Sigma, St. Louis, Mo.). The effect of AC620 on proliferation of DU-145 cells and LNCaP cells was determined by using a non-radioactive BrdU based cell proliferation assay kit (Roche, Switzerland) according to manufacturer's protocol. BrdU incorporation into the cellular DNA was determined by measuring the absorbance at 450 nm and 690 nm on an ELISA plate reader.
as §4, with “0 (Control) and” for “various concentrations (0, 0.1, 0.5, 1,”, “μM” for “μM)”, “for 24, 48 and” for “for”, “hr.” for “hr. LNCaP cells were maintained in RPMI 1640 medium (PAA Laboratories, Pashing, Austria) supplemented with 10% fetal calf serum (FCS) (Sigma, St. Louis, Mo.).”

[5] = system: DU-145 cells; experiment: Viable cells, Annexin-V staining and flow cytometry, DU-145 cells; format: cell-based, human; conditions: 72 hr
Experimental: (§5) AC620 was incubated with DU-145 cells, LNCaP cells and primary human prostate endothelial cells at high concentrations (0, 5, 100, 500, 1000 μM) for 72 hr. The number of viable cells was measured by Annexin-V staining followed by flow cytometry analysis.

[6] = system: DU-145 cells; experiment: Cell cycle profile by flow cytometry, DU-145 cells; format: cell-based, human; conditions: 72 hr
Experimental: AC620 was incubated with DU-145 cells at various concentrations ([…]) for 72 hr. The cells were then collected and their cell cycle profiles were measured by flow cytometry analysis.

[7] = system: LNCaP cells; experiment: Viable cells, Annexin-V staining and flow cytometry, LNCaP cells; format: cell-based, human; conditions: 72 hr
Experimental: as §5

[8] = system: DU-145 tumor xenografts; experiment: Tumor growth in DU-145 xenograft mouse model; format: in vivo; conditions: for decrease of tumor size: athymic nude mice, DU-145 xenograft
Experimental: as §1

[9] = system: DU-145 cells; experiment: Apoptosis, Annexin V flow cytometry, DU-145 cells; format: cell-based, human; conditions: 72 hr
Experimental: (§6) AC620 was incubated with DU-145 cells and LNCaP cells at various concentrations (0, 0.1, 0.5, 1, 5 μM) for 72 hr. The effect of AC620 on apoptosis of DU-145 cells and LNCaP cells was assessed. The cells were washed in 1×PBS and resuspended in binding buffer (0.01M Hepes pH 7.4, 0.14M NaCl, 2.5 mM CaCl2), stained with Annexin V conjugated with APC (Pharmingen) and then subjected to flow cytometry analysis using FACS Caliber (BD Biosciences, San Jose, Calif.).

[10] = system: primary human prostate endothelial cells; experiment: Viable cells, Annexin-V staining and flow cytometry, primary human prostate endothelial cells; format: cell-based; conditions: up to the highest concentration, 1000 μM, 72 hr
Experimental: as §5

[11] = system: LNCaP cells; experiment: Apoptosis, Annexin V flow cytometry, LNCaP cells; format: cell-based, human; conditions: 72 hr
Experimental: as §6

[12] = system: LNCaP cells; experiment: BrdU based cell proliferation assay, LNCaP cells; design: species or system human
Experimental: as §4
as §4, with “0 (Control) and” for “various concentrations (0, 0.1, 0.5, 1,”, “μM” for “μM)”, “for 24, 48 and” for “for”, “hr.” for “hr. LNCaP cells were maintained in RPMI 1640 medium (PAA Laboratories, Pashing, Austria) supplemented with 10% fetal calf serum (FCS) (Sigma, St. Louis, Mo.).”

[13] = system: VEGF; experiment: VEGF expression in DU-145 cells, immunoblotting; format: cell-based, human
Experimental: AC620 was dissolved in ethanol and then added to cultured DU-145 cells, a hormone-refractory, metastatic prostate cancer cell line. The concentrations tested were 0, 0.1, 0.5, 1 and 4 μM, and the cells were grown for 72 hr. Cells treated with ethanol for the same time period were used as Control. DU-145 cells were maintained in RPMI 1640 medium (PAA Laboratories, Pashing, Austria) supplemented with 10% fetal calf serum (FCS) (Sigma, St. Louis, Mo.). After 72 hr treatment, cell Tysates were collected and immunoblotting was performed. The membranes were probed with primary antibodies against VEGF and actin (Santa Cruz Biotechnology, Santa Cruz, Calif.) followed by horseradish peroxidase (HRP)-conjugated secondary antibodies (Amersham Life Science, Alesbury, U.K.) and visualized using the Enhanced Chemi-Luminescence detection system (ECL) and ECL films (Amersham Pharmacia Biotech).

[14] = system: p21; experiment: p21 expression in xenograft tumor samples, immunoblotting; format: in vivo, mouse
Experimental: as §1, §3

[15] = system: HT-29 cells; experiment: BrdU based cell proliferation assay, HT-29 cells; conditions: 72 hr
Experimental: as §4
AC620 was incubated with metastatic colorectal cancer cell line HT-29 cells at various concentrations (0, 0.1, 0.5, 1, 4 μM) for 72 hr. The effect of AC620 on proliferation of HT-29 cells was determined by using a non-radioactive, BrdU based cell proliferation assay as described above.

[16] = system: CDK2; experiment: CDK2 expression in DU-145 cells, immunoblotting; format: cell-based, human; conditions: 72 hr
Experimental: (§7) After 72 hr treatment, cell lysates were collected and immunoblotting was performed. The membranes were probed with primary antibodies against CDK2 (Transduction Laboratory, San Jose, Calif.) and actin (Santa Cruz Biotechnology, Santa Cruz, Calif.) followed by horseradish peroxidase (HRP)-conjugated secondary antibodies and visualized using the Enhanced Chemi-Luminescence detection system (ECL) and ECL films.

[17] = system: VEGF RNA; experiment: VEGF RNA expression in xenograft tumor samples, RT-PCR; format: in vivo, mouse; conditions: 30 days treatment
Experimental: as §1
(§8) Xenograft mouse model was generated and AC620 or PBS (Control) was administrated to the transplanted mice for 30 days as described above. After the mice were sacrificed, immunohistochemical analysis of the tumor samples was performed using VEGF and VEGF R2 antibodies with a semi-automatic system Ventana ES (Ventana Inc, Tucson, Ariz.). The specimens were viewed with an Olympus BX51 microscope. Expression of VEGF in tumor samples at RNA level was measured by RT-PCR.

[18] = system: VEGF; experiment: VEGF expression in xenograft tumor samples, immunohistochemistry; format: in vivo, mouse; conditions: 1 mg/kg s.c. twice a week, 30 days
Experimental: as §1, §8

[19] = system: VEGF Receptor I (VEGF R1); experiment: VEGF R1 expression in DU-145 cells, immunoblotting; format: cell-based, human; conditions: 0.1, 0.5, 1 μM, 72 hr
Experimental: as §7, with “DU-145 cells were treated with AC620 at various concentrations (0, 0.1, 0.5, 1 μM) for 72 hr. After” for “After”, “VEGF Receptor I (VEGF R1) and VEGF Receptor II (VEGF R2)” for “CDK2 (Transduction Laboratory, San Jose, Calif.)”

[20] = system: HT-29 cells; experiment: Apoptosis, Annexin V, HT-29 cells; format: cell-based; conditions: 72 hr
Experimental: as §6
AC620 was incubated with metastatic colorectal cancer cell line HT-29 cells at various concentrations (0, 0.1, 0.5, 1, 4 μM) for 72 hr. The effect of AC620 on apoptosis of HT-29 cells was assessed by Annexin V stating as described above.

CC1OC(OCC2OC(Oc3c(-c4ccc(O)c(O)c4)oc4cc(O)c(O)cc4c3=O)C(O)C(O)C2O)C(O)C(O)C1O (centres unmarked) [AC620]
reduction of CDK1 expression in tumor samples ([1]; Treatment 1): approximately 80%
reduction of CDK1 expression in tumor samples ([1]; Treatment 2): > 95%
reduction of CDK1 expression in tumor samples ([1]; Treatment 3): ~90%
reduction of CDK1 expression in tumor samples ([1]; Treatment 4): approximately 80%
estimated decrease of Bcl-2 expression in tumor samples ([2]; Treatment 1): ~80%
estimated decrease of Bcl-2 expression in tumor samples ([2]; Treatment 2): > 95%
estimated decrease of Bcl-2 expression in tumor samples ([2]; Treatment 3): ~90%
estimated decrease of Bcl-2 expression in tumor samples ([2]; Treatment 4): > 95%
reduction of CDK2 expression in tumor samples ([3]; Treatment 1): approximately 80%
reduction of CDK2 expression in tumor samples ([3]; Treatments 2, 3 and 4): > 95%
decrease in cell proliferation of DU-145 cells ([4]; 5 μM, after 24 hr): 6%
decrease in cell proliferation of DU-145 cells ([4]; 5 μM, after 48 hrs): 31%
decrease in cell proliferation of DU-145 cells ([4]; 5 μM, after 72 hr (time study)): 86%
decrease in cell proliferation of DU-145 cells ([4]; 0.1 μm, 72 hr): 37%
decrease in cell proliferation of DU-145 cells ([4]; 0.5 μm, 72 hr): 58%
decrease in cell proliferation of DU-145 cells ([4]; 1 μm, 72 hr): 72%
decrease in cell proliferation of DU-145 cells ([4]; 5 μm, 72 hr (dose study)): 84%
viable DU-145 cells decreased ([5]; 5 μm): 67%
viable DU-145 cells decreased ([5]; 100 μm): 93%
viable DU-145 cells decreased ([5]; 500 μm): 94%
viable DU-145 cells decreased ([5]; 1000 μm): 97%
G1 phase cell cycle arrest ([6]; 0.1 μm): 0%
G1 phase cell cycle arrest ([6]; 0.5 μm): 4%
G1 phase cell cycle arrest ([6]; 1 μm): 18%
G1 phase cell cycle arrest ([6]; 5 μm): 32%
viable LNCaP cells decreased ([7]; 5 μm): 42%
viable LNCaP cells decreased ([7]; 100 μm): 67%
viable LNCaP cells decreased ([7]; 500 μm): 92%
viable LNCaP cells decreased ([7]; 1000 μm): 96%
tumor growth compared to Control ([8]; 1 mg/kg subcutaneous twice a week, P<0.03): significantly reduced
decrease of tumor size ([8]; Day 19, 1 mg/kg subcutaneous twice a week): 47%
decrease of tumor size ([8]; Day 22, 1 mg/kg subcutaneous twice a week): 37%
decrease of tumor size ([8]; Day 25, 1 mg/kg subcutaneous twice a week): 24%
decrease of tumor size ([8]; Day 29, 1 mg/kg subcutaneous twice a week): 13%
morphology of tumor samples compared to Control group ([8]; immunohistochemical specimens, 30 days treatment): more differentiated morphology
apoptosis increased, DU-145 cells ([9]; 0.1 μm): 46%
apoptosis increased, DU-145 cells ([9]; 0.5 μm): 115%
apoptosis increased, DU-145 cells ([9]; 1 μm): 285%
apoptosis increased, DU-145 cells ([9]; 5 μm): 389%
viability of primary human prostate endothelial cells [10]: remained viable
apoptosis increased, LNCaP cells ([11]; 0.1 μm): 46%
apoptosis increased, LNCaP cells ([11]; 0.5 μm): 81%
apoptosis increased, LNCaP cells ([11]; 1 μm): 154%
apoptosis increased, LNCaP cells ([11]; 5 μm): 177%
decrease in cell proliferation of LNCaP cells ([12]; 5 μM, after 24 hr): 16%
decrease in cell proliferation of LNCaP cells ([12]; 5 μM, after 48 hr): 20%
decrease in cell proliferation of LNCaP cells ([12]; 5 μM, after 72 hr (time study)): 65%
decrease in cell proliferation of LNCaP cells ([12]; 0.1 μm, 72 hr): 23%
decrease in cell proliferation of LNCaP cells ([12]; 0.5 μm, 72 hr): 20%
decrease in cell proliferation of LNCaP cells ([12]; 1 μm, 72 hr): 42%
decrease in cell proliferation of LNCaP cells ([12]; 5 μm, 72 hr (dose study)): 65%
reduced VEGF expression ([13]; 0.1 μm AC620, 72 hr): approximately 40%
reduced VEGF expression ([13]; 0.5 μm AC620, 72 hr): approximately 60%
reduced VEGF expression ([13]; 1 μm AC620, 72 hr): approximately 80%
reduced VEGF expression ([13]; 4 μm AC620, 72 hr): over 95%
p21 expression reduced in tumor samples ([14]; Treatment 1): 0%
p21 expression reduced in tumor samples ([14]; Treatment 2): 70%
p21 expression reduced in tumor samples ([14]; Treatment 3): 60%
p21 expression reduced in tumor samples ([14]; Treatment 4): 90%
cell proliferation decreased, HT-29 cells ([15]; 0.1 μm): 0%
cell proliferation decreased, HT-29 cells ([15]; 0.5 μm): 5%
cell proliferation decreased, HT-29 cells ([15]; 1 μm): 46%
cell proliferation decreased, HT-29 cells ([15]; 4 μm): 62%
estimated decrease of CDK2 expression ([16]; 0.1 μm): ~0%
estimated decrease of CDK2 expression ([16]; 0.5 μm): ~10%
estimated decrease of CDK2 expression ([16]; 1 μm): ~20%
estimated decrease of CDK2 expression ([16]; 4 μm): ~60%
estimated decrease of VEGF RNA expression level in tumor samples [17]: ~90%
expression of VEGF in tumors [18]: completely abolished
change in VEGF R1 expression [19]: no change
apoptosis increased, HT-29 cells ([20]; 0.1 μm): 10%
apoptosis increased, HT-29 cells ([20]; 0.5 μm): 87%
apoptosis increased, HT-29 cells ([20]; 1 μm): 220%
apoptosis increased, HT-29 cells ([20]; 5 μm): 267%
